Measured values published in patent US10053428B2, “5-aminotetrahydroquinoline-2-carboxylic acids and their use” (BAYER PHARMA AKTIENGESELLSCHAFT, priority 2012, dated 2018).
Read-outs that look alike come from different tables or passages of the source.

Columns and labels:
saphenous artery rings = assay: Vasorelaxant effect in vitro (phenylephrine-contracted saphenous artery rings); parameters: species or system Rabbits; conditions: rabbit saphenous artery rings, read-out: IC50 (concentration reducing phenylephrine-induced contraction by 50%)
Procedure: B-3. Vasorelaxant Effect In Vitro
Rabbits are anaesthetized and sacrificed by intravenous injection of thiopental sodium (about 50 mg/kg) and exsanguinated. The saphenous artery is removed and divided into rings 3 mm wide. The rings are mounted singly on in each case a pair of triangular hooks open at the end and made of 0.3 mm-thick special wire (Remanium®). Each ring is placed under an initial tension in 5 ml organ baths with Krebs-Henseleit solution which is at 37° C., is gassed with carbogen and has the following composition: NaCl 119 mM; KCl 4.8 mM; CaCl2×2 H2O 1 mM; MgSO4×7H2O 1.4 mM; KH2PO4 1.2 mM; NaHCO3 25 mM; glucose 10 mM; bovine serum albumin 0.001%. The force of contraction is detected with Statham UC2 cells, amplified and digitized via A/D converters (DAS-1802 HC, Keithley Instruments, Munich) and recorded in parallel on chart recorders. Contractions are induced by addition of phenylephrine.
After several (generally 4) control cycles, the substance to be investigated is added in each further run in increasing dosage, and the level of the contraction achieved under the influence of the test substance is compared with the level of the contraction reached in the last preceding run. The concentration necessary to reduce the contraction reached in the preceding control by 50% is calculated from this (IC50). The standard application volume is 5 μl. The proportion of DMSO in the bath solution corresponds to 0.1%.

[1] = test system: recombinant guanylate cyclase reporter cell line; assay: sGC-activating activity in the CHO reporter cell in vitro; format: cell-based; conditions: read-out: MEC (minimum effective concentration)
Procedure: B-2. Action at a Recombinant Guanylate Cyclase Reporter Cell Line
The cellular action of the compounds according to the invention is determined at a recombinant guanylate cyclase reporter cell line, as described in F. Wunder et al., Anal. Biochem. 32, 104-112 (2005).

[2] = target: T1, haem-containing recombinant soluble guanylate cyclase (sGC) (Rattus norvegicus, UniProt P20595); assay: Stimulation of recombinant soluble guanylate cyclase (sGC) in vitro, haem-containing enzyme; format: biochemical
T1 construct: made in house; host or cells: Sf9 insect cells (baculovirus)
T1 sequence (P20595 1-619): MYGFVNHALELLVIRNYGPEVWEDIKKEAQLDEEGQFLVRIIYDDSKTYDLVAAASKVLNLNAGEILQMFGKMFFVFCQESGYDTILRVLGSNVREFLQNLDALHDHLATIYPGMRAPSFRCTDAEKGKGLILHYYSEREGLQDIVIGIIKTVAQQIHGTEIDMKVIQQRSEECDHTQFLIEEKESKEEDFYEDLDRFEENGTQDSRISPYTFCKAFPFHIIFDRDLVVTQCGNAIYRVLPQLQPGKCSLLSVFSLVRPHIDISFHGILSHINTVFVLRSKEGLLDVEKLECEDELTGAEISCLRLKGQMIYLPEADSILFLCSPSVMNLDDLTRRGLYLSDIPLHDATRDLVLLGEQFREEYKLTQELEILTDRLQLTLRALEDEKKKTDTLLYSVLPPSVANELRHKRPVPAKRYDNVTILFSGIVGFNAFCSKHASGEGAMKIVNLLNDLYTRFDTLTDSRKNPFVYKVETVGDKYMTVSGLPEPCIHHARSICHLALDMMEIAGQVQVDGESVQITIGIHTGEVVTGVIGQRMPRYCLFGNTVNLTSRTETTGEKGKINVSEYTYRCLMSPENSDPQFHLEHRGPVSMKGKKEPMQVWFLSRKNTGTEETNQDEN
T1 sequence (P19686 1-690 partner): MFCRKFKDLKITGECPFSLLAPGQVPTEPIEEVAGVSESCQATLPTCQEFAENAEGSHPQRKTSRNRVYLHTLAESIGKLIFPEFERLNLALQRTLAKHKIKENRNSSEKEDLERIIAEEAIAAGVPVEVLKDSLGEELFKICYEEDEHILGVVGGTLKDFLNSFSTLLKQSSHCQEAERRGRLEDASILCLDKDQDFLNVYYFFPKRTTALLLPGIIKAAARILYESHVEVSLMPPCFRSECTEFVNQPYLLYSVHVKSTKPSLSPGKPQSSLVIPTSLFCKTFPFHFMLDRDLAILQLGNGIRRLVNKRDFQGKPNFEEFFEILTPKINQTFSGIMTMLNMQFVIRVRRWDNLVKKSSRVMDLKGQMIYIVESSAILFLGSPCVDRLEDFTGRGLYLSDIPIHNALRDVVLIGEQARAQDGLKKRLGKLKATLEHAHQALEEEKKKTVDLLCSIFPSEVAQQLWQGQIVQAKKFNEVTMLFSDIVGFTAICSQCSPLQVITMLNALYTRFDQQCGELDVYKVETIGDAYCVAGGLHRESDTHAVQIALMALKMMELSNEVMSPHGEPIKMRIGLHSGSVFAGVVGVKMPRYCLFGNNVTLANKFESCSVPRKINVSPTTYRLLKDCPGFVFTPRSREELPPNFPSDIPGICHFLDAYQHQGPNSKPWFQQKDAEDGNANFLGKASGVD
Procedure: (§1) B-1. Stimulation of Recombinant Soluble Guanylate Cyclase (sGC) In Vitro
(§2) Investigations on the stimulation of recombinant soluble guanylate cyclase (sGC) by the compounds according to the invention with and without sodium nitroprusside, and with and without the haem-dependent sGC inhibitor 1H-1,2,4-oxadiazolo[4,3a]quinoxalin-1-one (ODQ), are carried out by the method described in detail in the following reference: M. Hoenicka, E. M. Becker, H. Apeler, T. Sirichoke, H. Schroeder, R. Gerzer and J.-P. Stasch, “Purified soluble guanylyl cyclase expressed in a baculovirus/Sf9 system: Stimulation by YC-1, nitric oxide, and carbon oxide”, J. Mol. Med 77 (1999), 14-23. The haem-free guanylate cyclase is obtained by adding Tween 20 to the sample buffer (0.5% in the final concentration).
The activation of sGC by a test substance is reported as x-fold stimulation of the basal activity. The result for Example 2 is shown in Table 1A, that for Example 23 in Table 1B and that for Example 39 in Table 1C:
[DEA/NO=2-(N,N-diethylamino)diazenolate 2-oxide; ODQ=1H-1,2,4-oxadiazolo-[4,3a]quinoxalin-1-one].

[3] = target: T2, haem-free recombinant soluble guanylate cyclase (sGC) (Rattus norvegicus, UniProt P20595); assay: Stimulation of recombinant soluble guanylate cyclase (sGC) in vitro, haem-free enzyme; format: biochemical
T2 construct: made in house; host or cells: Sf9 insect cells (baculovirus)
T2 sequence (P20595 1-619): T1 sequence (P20595 1-619)
T2 sequence (P19686 1-690 partner): T1 sequence (P19686 1-690 partner)
Procedure: as §1, §2
The activation of sGC by a test substance is reported as x-fold stimulation of the basal activity. The result for Example 2 is shown in Table 1A, that for Example 23 in Table 1B and that for Example 39 in Table 1C: […]

[4] = test system: animal model of pulmonary hypertension; conditions: cited from earlier work

Cc1ccc2oc(-c3ccc(COc4ccccc4CCN(CCCCC(=O)O)C4CCCc5nc(C(=O)O)ccc54)cc3)nc2c1 (single isomer, unassigned; enantiomer 2) [Example 2, (+)-5-{(4-Carboxybutyl)[2-(2-{[4-(5-methyl-1,3-benzoxazol-2-yl)benzyl]oxy}phenyl)ethyl]-amino}-5,6,7,8-tetrahydroquinoline-2-carboxylic acid (Enantiomer 2)]
IC50 (saphenous artery rings): 3.6 nM | minimal effective concentration [1]: 1.1 nM | Effect of combination with the NO donor DEA/NO on sGC stimulation ([2]; combination with DEA/NO): no synergistic effect | Stimulation (x-fold), haem-containing sGC, basal ([2]; test compound 0.01 μM): 13.7 ± 1.9 x-fold | Stimulation (x-fold), haem-containing sGC, +0.01 μM DEA/NO ([2]; test compound 0.01 μM): 20.2 ± 3.8 x-fold | Stimulation (x-fold), haem-containing sGC, +10 μM ODQ ([2]; test compound 0.01 μM): 63.9 ± 12.2 x-fold | Stimulation (x-fold), haem-containing sGC, basal ([2]; test compound 0.1 μM): 31.2 ± 3.5 x-fold | Stimulation (x-fold), haem-containing sGC, +0.01 μM DEA/NO ([2]; test compound 0.1 μM): 42.7 ± 7.2 x-fold | Stimulation (x-fold), haem-containing sGC, +10 μM ODQ ([2]; test compound 0.1 μM): 129.2 ± 18.9 x-fold | Stimulation (x-fold), haem-containing sGC, basal ([2]; test compound 1.0 μM): 40.2 ± 4.0 x-fold | Stimulation (x-fold), haem-containing sGC, +0.01 μM DEA/NO ([2]; test compound 1.0 μM): 56.5 ± 10.5 x-fold | Stimulation (x-fold), haem-containing sGC, +10 μM ODQ ([2]; test compound 1.0 μM): 172.2 ± 26.3 x-fold | Stimulation (x-fold), haem-containing sGC, basal ([2]; test compound 10 μM): 51.6 ± 6.4 x-fold | Stimulation (x-fold), haem-containing sGC, +0.01 μM DEA/NO ([2]; test compound 10 μM): 62.7 ± 11.0 x-fold | Stimulation (x-fold), haem-containing sGC, +10 μM ODQ ([2]; test compound 10 μM): 189.5 ± 28.2 x-fold | Stimulation (x-fold), haem-free sGC, basal ([3]; test compound 0.01 μM): 5.2 ± 0.6 x-fold | Stimulation (x-fold), haem-free sGC, basal ([3]; test compound 0.1 μM): 19.9 ± 2.2 x-fold | Stimulation (x-fold), haem-free sGC, basal ([3]; test compound 1.0 μM): 82.7 ± 10.5 x-fold | Stimulation (x-fold), haem-free sGC, basal ([3]; test compound 10 μM): 169.5 ± 23.6 x-fold

O=C(O)CCCCN(CCc1ccccc1OCc1ccc(-c2ccc(C(F)(F)F)cc2)cc1)C1CCCc2nc(C(=O)O)ccc21 (single isomer, unassigned) [Example 18]
IC50 (saphenous artery rings; Oryctolagus cuniculus): 0.4 nM | minimal effective concentration [1]: 0.3 nM

O=C(O)CCCCN(CCc1ccccc1OCc1ccc(CCc2ccccc2)cc1)Cc1ccc(C(=O)O)cc1 [BAY 58-2667, cinaciguat]
Duration of action ([4]; inhalative): did not have a sufficient duration of action | Pulmonary arterial pressure after inhalative administration ([4]; microparticles): dose-dependent selective reduction
